In paper PMC11237012, “Synthesis and preliminary evaluation of novel PET probes for GSK-3 imaging” (Scientific Reports, 2024):
Several values for one entry are separate records, joined by “and”; a condition that tells them apart may be missing. Equal entries are not always repeated. Structures can show the parent of a compound that is named as a salt.

Key:
[1] = In vitro parallel artificial membrane permeability assay (PAMPA), blood–brain barrier permeability; conditions: for Papp: PAMPA
Text: To evaluate the blood–brain barrier permeability and binding affinity of the developed PET probes[^18F]2 and [^18F]6, their respective nonradioactive versions were used. For blood–brain barrier permeability evaluation, we applied in vitro parallel artificial membrane permeability assay (PAMPA) and evaluated binding affinity via an inhibition assay to determine the IC50 value, as described in method section. We further measured the stability of both PET probes, [^18F]2 and [^18F]6, using radio thin layer chromatography (radio-TLC) over time, as also described in the method section. […] The blood–brain permeability was expressed through the permeability coefficient, P (10^–6 cm/s) and -logPe.

[2] = molecular target: T1, human GSK-3α (Homo sapiens, UniProt P49840); test: GSK-3α kinase inhibition assay (ADP-Glo); format: biochemical
T1 construct: purchased Promega Corporation, Madison, WI
Text: (§1) Phosphorylation of glycogen synthase kinase substrate was quantified using a luminescent ADP-Glo™ Kinase assay system (Promega Corporation, Madison, WI).

[3] = molecular target: T2, human GSK-3β (Homo sapiens, UniProt P49841); test: GSK-3β kinase inhibition assay (ADP-Glo); format: biochemical
T2 construct: purchased Promega Corporation, Madison, WI
Text: as §1

[4] = Radiochemical stability in isotonic NaCl solution (rad-TLC); format: physicochemical; conditions: 37 °C
Experimental: (§2) The stability of PET probes [^18F]2 and [^18F]6 was measured in isotonic NaCl solution (0.9% NaCl) and mouse and human serums at 37 °C for up to 120 min by rad-TLC at 0 min, 30 min, 60 min and 120 min post incubation. The results obtained are presented in Fig. 5 and SI-Figs. S10–S15, SI-Table S1. […] The plausible explanation of the instability of [^18F]6 could be attributed to the covalent interaction of [^18F]6’s SO2F group with primary amines of amino acid residues present in the protein rich mouse and human serums. In fact, in an unrelated study, Zhao et al. reported formation of sulfonamide bond between sulfuryl fluoride and primary amine of conserved lysine residues of different kinases. […] Based on 2’s favorable blood–brain barrier permeability, nanomolar binding affinity and PET probe [^18F]2’s excellent stability in both mouse and human serums, further in vivo evaluations were performed only with PET probe [^18F]2.
(§3) Stability of [^18F]2 and [^18F]6 was assessed in isotonic NaCl solution and human and mouse serums. To perform this stability assay, 100 µL of [^18F]2 (~ 37.0 MBq) or 100 µL of [^18F]6 (~ 37.0 MBq) as in final formulation was added to 100 µL of human serum or mouse serum in a microcentrifuge tube. The resultant mixture was incubated at 37 °C for 120 min. To assess the radiochemical stability of the probes, a small aliquot (~ 0.5 µL) was taken out from the mixture in triplicate at 0 min, 30 min, 60 min and 120 min during incubation, and analyzed on a rad-TLC using 0.5:9.5 methanol: chloroform as a mobile phase using i-TLC to estimate the stability of [^18F]2 or [^18F]6 at different time points post-incubation. After Stability preparative processes initial i-TLC development was considered as 0 min.

[5] = Radiochemical stability in human serum (rad-TLC); format: in vitro ADME; conditions: 37 °C
Experimental: as §2, §3

[6] = Radiochemical stability in mouse serum (rad-TLC); format: in vitro ADME; conditions: 37 °C
Experimental: as §2, §3

[7] = set-up: method as in PMID 33492962, doi:10.1002/ejoc.202201031; conditions: cited from earlier work
[8] = set-up: method as in PMID 33492962, doi:10.1002/ejoc.202201031; conditions: FVB/NJ mice; cited from earlier work
[9] = set-up: method as in PMID 33840834, PMID 35295885, PMID 34423266; conditions: 2 min post injection; Sprague Dawley rats; cited from earlier work
[10] = molecular target: GSK-3β; set-up: method as in PMID 33840834, PMID 35295885, PMID 34423266; conditions: cited from earlier work
[11] = pH 7.4, Permeability coefficient, P, Average ± SD

T1 sequence (P49840 whole entry): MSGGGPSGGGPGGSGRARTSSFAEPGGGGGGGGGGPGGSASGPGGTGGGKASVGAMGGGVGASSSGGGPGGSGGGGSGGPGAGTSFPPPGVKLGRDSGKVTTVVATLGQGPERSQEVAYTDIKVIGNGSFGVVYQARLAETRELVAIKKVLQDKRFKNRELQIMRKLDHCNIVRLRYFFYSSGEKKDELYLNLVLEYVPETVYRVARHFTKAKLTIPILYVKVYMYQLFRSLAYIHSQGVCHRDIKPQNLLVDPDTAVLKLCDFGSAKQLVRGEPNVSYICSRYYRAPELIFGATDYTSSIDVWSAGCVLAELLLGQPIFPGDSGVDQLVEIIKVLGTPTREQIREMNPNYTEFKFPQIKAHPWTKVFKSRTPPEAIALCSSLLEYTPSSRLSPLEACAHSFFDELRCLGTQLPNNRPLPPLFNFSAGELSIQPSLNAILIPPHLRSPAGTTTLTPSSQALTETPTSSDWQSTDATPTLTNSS
T2 sequence (P49841 whole entry): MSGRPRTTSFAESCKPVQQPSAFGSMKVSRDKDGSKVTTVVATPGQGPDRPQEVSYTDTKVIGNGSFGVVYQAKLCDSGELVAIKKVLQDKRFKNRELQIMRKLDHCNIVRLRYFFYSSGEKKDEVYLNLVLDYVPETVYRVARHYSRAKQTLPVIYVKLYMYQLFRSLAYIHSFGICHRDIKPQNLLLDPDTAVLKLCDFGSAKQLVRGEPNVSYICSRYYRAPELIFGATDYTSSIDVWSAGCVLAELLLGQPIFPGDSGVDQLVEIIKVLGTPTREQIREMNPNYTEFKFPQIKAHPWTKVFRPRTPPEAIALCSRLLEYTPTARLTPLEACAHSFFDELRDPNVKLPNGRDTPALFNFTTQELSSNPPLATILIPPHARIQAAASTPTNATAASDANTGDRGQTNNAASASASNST

O=C(Nc1cnccc1-c1ccc(F)cc1)c1ccnc(NC(=O)C2CC2)c1 [Compound 2, 2-(cyclopropanecarboxamido)-N-(4-(4-fluorophenyl)pyridin-3-yl)isonicotinamide]
Papp ([1]; pH 7.4, Average ± SD): 31.6 ×10⁻⁶ cm/s
Papp [1, 11]: 36 ± 20 ×10⁻⁶ cm/s
Permeability coefficient, P, Average ± SD ([1]; pH 7.4): 38 ± 20 (n = 3) 10^–6 cm/s

O=C(Nc1cnccc1-c1ccc(OS(=O)(=O)F)cc1)c1ccnc(NC(=O)C2CC2)c1 [Compound 6, 4-(3-(2-(cyclopropanecarboxamido)isonicotinamido)pyridin-4-yl)phenyl sulfurofluoridate]
IC50 [2]: 55.7 ± 4.89 nM
Papp ([1]; pH 7.4): 8.75 ± 3.9 ×10⁻⁶ cm/s
IC50 [3]: 44 ± 2.84 nM

CC(C)NCC(O)COc1cccc2ccccc12 (centres unmarked) [Propranolol HCl, reference compound]
Papp [1, 11]: 32 ± 1 ×10⁻⁶ cm/s

O=C(Nc1cnccc1-c1ccc(OS(=O)(=O)[18F])cc1)c1ccnc(NC(=O)C2CC2)c1 [[^18F]6]
Percentage of intact probe ([4]; 0 min): 100 ± 0.0%
Percentage of intact probe ([4]; 30 min): 100 ± 0.0%
Percentage of intact probe ([4]; 60 min): 100 ± 0.0%
Percentage of intact probe ([5]; 30 min): 92.46± 2.61% and 92.46 ± 2.6%
Percentage of intact probe ([5]; 60 min): 80.13± 14.24%
Percentage of intact probe ([5]; 120 min): 66.20 ± 6.38% and 66.20 ± 4.93%
Percentage of intact probe ([6]; 30 min): 87.30 ± 8.99%
Percentage of intact probe ([6]; 60 min): 81.17± 6.38%
Percentage of intact probe ([6]; 120 min): 67.01 ± 4.93% and 67.01 ± 6.38%

O=C(Nc1cnccc1-c1ccc([18F])nc1)c1ccnc(NC(=O)C2CC2)c1 [[^18F]CNBI]
metabolic stability [7]: moderate
brain uptake [8]: poor

COc1ccc(-c2ocnc2C(=O)NCCCc2ccc([18F])nc2)cc1Cl [[^18F]OCM50]
standardized uptake value (SUV) [9]: ~ 2.0
Ki [10]: 0.28 nM
